Reference: ChEMBL document CHEMBL3396996, “Catechol-based substrates of chalcone synthase as a scaffold for novel inhibitors of PqsD” (Eur J Med Chem, 2015)
The source made the active and inactive calls. No cut-off for these calls is given here.

Assays:
[1] = test system: Pseudomonas aeruginosa PA14; test: Inhibition of Pseudomonas aeruginosa PA14 PqsH transposon mutant assessed as extracellular level of HHQ after 16 hrs
[2] = molecular target: T1, 2-heptyl-4(1H)-quinolone synthase PqsD (Pseudomonas aeruginosa, UniProt A0A0C7ACN7); test: Inhibition of Pseudomonas aeruginosa recombinant PqsD expressed in Escherichia coli BL21 (lambdaDE3) using ACoA/beta-ketodecanoic acid as substrate after 10 mins
T1 sequence (A0A0C7ACN7 whole entry): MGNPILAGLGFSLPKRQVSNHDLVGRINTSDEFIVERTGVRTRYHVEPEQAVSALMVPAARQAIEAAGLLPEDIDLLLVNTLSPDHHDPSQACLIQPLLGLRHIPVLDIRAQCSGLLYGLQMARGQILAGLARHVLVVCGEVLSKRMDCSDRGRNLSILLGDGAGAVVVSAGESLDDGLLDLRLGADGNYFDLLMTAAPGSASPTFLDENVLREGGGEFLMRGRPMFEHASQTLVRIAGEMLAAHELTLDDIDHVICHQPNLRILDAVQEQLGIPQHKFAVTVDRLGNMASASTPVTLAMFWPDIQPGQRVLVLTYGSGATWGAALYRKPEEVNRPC

[3] = molecular target: T2, 2-heptyl-4(1H)-quinolone synthase PqsD (Pseudomonas aeruginosa) (UniProt A0A0C7ACN7); test: Binding affinity to Pseudomonas aeruginosa recombinant his6-tagged PqsD expressed in Escherichia coli BL21 (lambdaDE3) at 250 to 500 uM by SPR analysis
T2 sequence (whole entry): T1 sequence (A0A0C7ACN7 whole entry)

[4] = molecular target: T2, 2-heptyl-4(1H)-quinolone synthase PqsD (Pseudomonas aeruginosa); test: Inhibition of Pseudomonas aeruginosa recombinant PqsD expressed in Escherichia coli BL21 (lambdaDE3) using ACoA/beta-ketodecanoic acid as substrate at 50 uM after 10 mins
[5] = test system: Pseudomonas aeruginosa PA14; test: Inhibition of Pseudomonas aeruginosa PA14 PqsH transposon mutant assessed as extracellular level of HHQ at 250 uM after 16 hrs
[6] = molecular target: T2, 2-heptyl-4(1H)-quinolone synthase PqsD (Pseudomonas aeruginosa); test: Binding affinity to Pseudomonas aeruginosa recombinant his6-tagged PqsD expressed in Escherichia coli BL21 (lambdaDE3) using AcoA as substrate at 250 to 500 uM incubated for 40 mins prior to compound addition followed by wash out for 30 mins by SPR analysis
[7] = test system: Pseudomonas aeruginosa PA14; test: Inhibition of Pseudomonas aeruginosa PA14 PqsH transposon mutant assessed as extracellular level of HHQ at 500 uM after 16 hrs

Structure (SMILES) | IC50 [2] [µM] | inhibition [4] [%] | inhibition [5] [%] | further results
COC(=O)CCCc1ccc(O)c(O)c1 | 7.9 | – | – | Activity [1]: 18 µM; Activity [3]: Active
CCOC(=O)CCc1ccc(O)c(O)c1 | 14 | – | – | Activity [1]: 17 µM
O=C(O)/C=C/c1ccoc1 | – | 12 | – | –
COC(=O)CCc1ccc2c(c1)OCO2 | – | 37 | < 10 | –
COC(=O)CCc1ccc(N)cc1 | – | < 10 | – | –
COC(=O)/C=C/c1ccccc1 | – | < 10 | – | Activity [6]: inactive
COC(=O)/C=C/c1ccc(F)c(F)c1 | – | < 10 | < 10 | –
O=C(O)/C=C/c1ccc(F)c(F)c1 | – | 18 | – | –
COC(=O)/C=C/c1ccc(O)c(O)c1 [METHYLCAFFEATE] | 51 | – | – | Activity [1]: 31 µM; Activity [6]: inactive
O=C(O)/C=C/c1ccccc1 | – | 33 | < 10 | –
COC(=O)CCc1ccc(C)cc1 | – | < 10 | – | –
COC(=O)/C=C/c1ccc(O)cc1 | – | 22 | < 10 | Activity [6]: inactive
O=C(O)/C=C/c1cccc(O)c1 | – | < 10 | – | –
O=C(CCc1ccc(O)c(O)c1)OCc1ccccc1 | 5.9 | – | < 10 | Activity [3]: Active
O=C(O)/C=C/c1ccc(O)c(O)c1 | – | 26 | – | inhibition [7]: 10%
O=C(O)CCc1ccc(O)c(O)c1 [DIHYDROCAFFEIC ACID] | 27 | – | < 10 | –
O=C(O)/C=C/c1ccc(O)cc1 | – | 30 | < 10 | –
COC(=O)CCc1ccc(O)c(O)c1 | 23 | – | – | Activity [1]: 17 µM
COC(=O)CCc1ccc(O)cc1 | – | < 10 | – | –
CNC(=O)CCc1ccc(O)c(O)c1 | 20 | – | < 10 | –
COC(=O)CCc1ccc([N+](=O)[O-])cc1 | – | < 10 | – | –
CC(C)OC(=O)CCc1ccc(O)c(O)c1 | 8.6 | – | – | Activity [1]: 16 µM; Activity [3]: Active
O=C(O)/C=C/c1ccsc1 | – | 12 | < 10 | –
COc1cc(/C=C/C(=O)O)ccc1O | – | < 10 | – | –
COC(=O)Cc1ccc(O)c(O)c1 | 23 | – | – | Activity [1]: 24 µM
